Reference: patent US12344603B2 (Genentech, Inc., priority 2020, dated 2025)

Molecular target: IRE1α (Homo sapiens (Human), UniProt O75460, D688N)
Test: IRE1α TR-FRET competition binding assay (IRE1α HTRF)
Settings: TR-FRET competition binding to kinase domain of IRE1α
How it was run: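 Competition of compounds against an Alexa fluor 647 ATP-site probe (2 nM final) for the His-tagged kinase domain (0.25 nM final), detected via 2 nM Eu anti-His antibody by TR-FRET, 665 and 615 nm emission. Protein–antibody premix 1 h, 4° C; reaction 1 h, room temperature, pH 7.5 HEPES buffer.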

IRE1α, sequence (O75460 547-977 D688N): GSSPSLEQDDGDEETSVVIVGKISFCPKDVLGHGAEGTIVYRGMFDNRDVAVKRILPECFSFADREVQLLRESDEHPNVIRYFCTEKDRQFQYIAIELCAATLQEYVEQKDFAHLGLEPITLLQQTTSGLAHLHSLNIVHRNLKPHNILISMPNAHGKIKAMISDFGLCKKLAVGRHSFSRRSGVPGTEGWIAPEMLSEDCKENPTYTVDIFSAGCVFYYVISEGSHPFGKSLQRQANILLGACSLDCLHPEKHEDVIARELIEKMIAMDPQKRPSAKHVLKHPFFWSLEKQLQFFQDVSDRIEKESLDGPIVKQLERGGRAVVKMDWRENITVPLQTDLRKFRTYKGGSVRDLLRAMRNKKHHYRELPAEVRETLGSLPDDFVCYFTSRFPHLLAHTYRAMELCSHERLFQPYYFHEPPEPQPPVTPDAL

| Structure (SMILES) | IC50 |
| --- | --- |
| CC(C)n1c(=O)c(-c2ccc(NS(=O)(=O)CCC(F)(F)F)c(F)c2)cc2cnc(N[C@H]3CC[C@H](N4CC5(COC5)C4)CC3)nc21 [Compound 212, N-(4-(2-(((1,4-trans)-4-(2-Oxa-6-azaspiro[3.3]heptan-6-yl)cyclohexyl)amino)-8-isopropyl-7-oxo-7,8-dihydropyrido[2,3-d]pyrimidin-6-yl)-2-fluorophenyl)-3,3,3-trifluoropropane-1-sulfonamide] | 0.24 nM |
| CC(C)n1c(=O)c(-c2ccc(NS(=O)(=O)CCC(F)(F)F)c(F)c2)cc2cnc(N[C@H]3CC[C@H](N4CCOCC4)CC3)nc21 [Compound 213, 3,3,3-Trifluoro-N-(2-fluoro-4-(8-isopropyl-2-(((1,4-trans)-4-morpholinocyclohexyl)amino)-7-oxo-7,8-dihydropyrido[2,3-d]pyrimidin-6-yl)phenyl)propane-1-sulfonamide] | 0.14 nM |
| CC(C)n1c(=O)c(-c2ccc(NS(=O)(=O)CCC(F)(F)F)c(F)c2)cc2cnc(NC3CCC(N(C)C)C(O)C3)nc21 (stereo not drawn) [Compound 226, N-(4-(2-((4-(dimethylamino)-3-hydroxycyclohexyl)amino)-8-isopropyl-7-oxo-7,8-dihydropyrido[2,3-d]pyrimidin-6-yl)-2-fluorophenyl)-3,3,3-trifluoropropane-1-sulfonamide] | 0.3 nM |
| CC(C)n1c(=O)c(-c2ccc(NS(=O)(=O)CCC(F)(F)F)c(F)c2)cc2cnc(N[C@H]3CC[C@H](N(C)C)[C@@H](O)C3)nc21 [Compound 228, N-(4-(2-(((1S,3S,4S)-4-(dimethylamino)-3-hydroxycyclohexyl)amino)-8-isopropyl-7-oxo-7,8-dihydropyrido[2,3-d]pyrimidin-6-yl)-2-fluorophenyl)-3,3,3-trifluoropropane-1-sulfonamide] | 0.2 nM |
| CC(C)n1c(=O)c(-c2ccc(NS(=O)(=O)CCC(F)(F)F)nc2)cc2cnc(N[C@H]3CC[C@H](N(C)C)CC3)nc21 [Example 215, N-(5-(2-(((1r,4r)-4-(dimethylamino)cyclo-hexyl)amino)-8-isopropyl-7-oxo-7,8-dihydropyrido[2,3-d]-pyrimidin-6-yl)pyridin-2-yl)-3,3,3-trifluoro-propane-1-sulfonamide] | 0.3 nM |
| CC(C)n1c(=O)c(-c2ccc(NS(=O)(=O)CCC(F)(F)F)nc2)cc2cnc(N[C@@H]3CNC[C@@H](F)C3)nc21 [Example 216, 3,3,3-trifluoro-N-(5-(2-(((3S,5S)-5-fluoro-piperidin-3-yl)amino)-8-isopropyl-7-oxo-7,8-dihydropyrido[2,3-d]-pyrimidin-6-yl)pyridin-2-yl)propane-1-sulfon-amide] | 1.7 nM |
| CC(C)n1c(=O)c(-c2ccc(NS(=O)(=O)CCC(F)(F)F)cn2)cc2cnc(N[C@H]3CC[C@H](N(C)C)CC3)nc21 [Example 218, N-(6-(2-(((1r,4r)-4-(dimethylamino)cyclo-hexyl)amino)-8-isopropyl-7-oxo-7,8-dihydropyrido[2,3-d]-pyrimidin-6-yl)pyridin-3-yl)-3,3,3-trifluoro-propane-1-sulfonamide] | 0.2 nM |
| CC(C)n1c(=O)c(-c2ccc(NS(=O)(=O)CCC(F)(F)F)c(F)c2)cc2cnc(NC3CCC4(CC3)CNC4)nc21 [Example 220, N-(4-(2-((2-azaspiro[3.5]nonan-7-yl)amino)-8-isopropyl-7-oxo-7,8-dihydropyrido[2,3-d]pyrimidin-6-yl)-2-fluorophenyl)-3,3,3-trifluoropropane-1-sulfonamide] | 5 nM |
| CC(C)n1c(=O)c(-c2ccc(NS(=O)(=O)CCC(F)(F)F)c(F)c2)cc2cnc(NC3CCC4(CC3)CN(C)C4)nc21 [Example 221, 3,3,3-Trifluoro-N-(2-fluoro-4-(8-isopropyl-2-((2-methyl-2-azaspiro[3.5]nonan-7-yl)amino)-7-oxo-7,8-dihydropyrido[2,3-d]pyrimidin-6-yl)phenyl)propane-1-sulfonamide] | 0.2 nM |
| CC(C)n1c(=O)c(-c2cnc(NS(=O)(=O)CCC(F)(F)F)c(F)c2)cc2cnc(N[C@H]3CC[C@H](N(C)C)CC3)nc21 [Example 222, N-(5-(2-(((1r,4r)-4-(dimethylamino)cyclo-hexyl)amino)-8-isopropyl-7-oxo-7,8-dihydropyrido[2,3-d]-pyrimidin-6-yl)-3-fluoropyridin-2-yl)-3,3,3-trifluoropropane-1-sulfonamide] | 0.3 nM |
| CC(C)n1c(=O)c(-c2ccc(NS(=O)(=O)CCC(F)(F)F)cn2)cc2cnc(N[C@H]3CC[C@H](N(C)C)[C@H](F)C3)nc21 [Example 223, N-(6-(2-(((1S,3R,4S)-4-(Dimethylamino)-3-fluorocyclohexyl)amino)-8-isopropyl-7-oxo-7,8-dihydropyrido[2,3-d]pyrimidin-6-yl)pyridin-3-yl)-3,3,3-trifluoropropane-1-sulfonamide] | 0.5 nM |
| CC(C)n1c(=O)c(-c2ccc(NS(=O)(=O)CCC(F)(F)F)nc2)cc2cnc(N[C@H]3CC[C@H](N(C)C)[C@H](F)C3)nc21 [Example 224] | 0.2 nM |
| CC(C)n1c(=O)c(-c2ccc(NS(=O)(=O)CCC(F)(F)F)c(F)c2)cc2cnc(NC3CCC(O)C(N(C)C)C3)nc21 (stereo not drawn) [Example 225, N-(4-(2-((3-(Dimethylamino)-4-hydroxycyclohexyl)amino)-8-isopropyl-7-oxo-7,8-dihydropyrido[2,3-d]pyrimidin-6-yl)-2-fluorophenyl)-3,3,3-trifluoropropane-1-sulfonamide] | 5.4 nM |

Second part, the compound after the results:

| IC50 | Structure (SMILES) |
| --- | --- |
| 0.3 nM | CC(C)n1c(=O)c(-c2ccc(NS(=O)(=O)CCC(F)(F)F)c(F)c2)cc2cnc(N[C@@H]3CC[C@@H](N(C)C)[C@H](O)C3)nc21 [Example 227, N-(4-(2-(((1R,3R,4R)-4-(Dimethylamino)-3-hydroxycyclohexyl)amino)-8-isopropyl-7-oxo-7,8-dihydropyrido[2,3-d]pyrimidin-6-yl)-2-fluorophenyl)-3,3,3-trifluoropropane-1-sulfonamide] |
| 0.3 nM | CC(C)n1c(=O)c(-c2ccc(NS(=O)(=O)CCC(C)(F)F)c(F)c2)cc2cnc(N[C@H]3CC[C@H](N(C)C)CC3)nc21 [Example 229, N-(4-(2-(((1r,4r)-4-(Dimethylamino)cyclohexyl)amino)-8-isopropyl-7-oxo-7,8-dihydropyrido[2,3-d]pyrimidin-6-yl)-2-fluorophenyl)-3,3-difluorobutane-1-sulfonamide] |
| 0.2 nM | CC(C)n1c(=O)c(-c2ccc(NS(=O)(=O)CCC3(C)CC3)c(F)c2)cc2cnc(N[C@H]3CC[C@H](N(C)C)CC3)nc21 [Example 230, N-(4-(2-(((1r,4r)-4-(dimethylamino)cyclo-hexyl)amino)-8-isopropyl-7-oxo-7,8-dihydropyrido[2,3-d]-pyrimidin-6-yl)-2-fluorophenyl)-2-(1-methylcyclopropyl)-ethane-1-sulfonamide] |
| 0.1 nM | CC(C)n1c(=O)c(-c2ccc(NS(=O)(=O)CCC3CCC3)c(F)c2)cc2cnc(N[C@H]3CC[C@H](N(C)C)CC3)nc21 [Example 231, 2-cyclobutyl-N-(4-(2-(((1r,4r)-4-(dimethyl-amino)cyclohexyl)-amino)-8-isopropyl-7-oxo-7,8-dihydropyrido-[2,3-d]pyrimidin-6-yl)-2-fluorophenyl)ethane-1-sulfonamide] |
| 0.2 nM | CC(C)n1c(=O)c(-c2ccc(NS(=O)(=O)CCCC3CC3)c(F)c2)cc2cnc(N[C@H]3CC[C@H](N(C)C)CC3)nc21 [Example 232, 3-cyclopropyl-N-(4-(2-(((1r,4r)-4-(dimethyl-amino)cyclohexyl)-amino)-8-isopropyl-7-oxo-7,8-dihydropyrido-[2,3-d]pyrimidin-6-yl)-2-fluorophenyl)propane-1-sulfonamide] |
| 1.3 nM | CC(C)n1c(=O)c(-c2cnc(NS(=O)(=O)CCC(F)(F)F)nc2)cc2cnc(N[C@H]3CC[C@H](N(C)C)CC3)nc21 [Example 233, N-(5-(2-(((1r,4r)-4-(Dimethylamino)cyclohexyl)amino)-8-isopropyl-7-oxo-7,8-dihydropyrido[2,3-d]pyrimidin-6-yl)pyrimidin-2-yl)-3,3,3-trifluoropropane-1-sulfonamide] |
| 0.2 nM | COCCN1CC2(CCC(Nc3ncc4cc(-c5ccc(NS(=O)(=O)CCC(F)(F)F)c(F)c5)c(=O)n(C(C)C)c4n3)CC2)C1 [Example 234, 3,3,3-Trifluoro-N-(2-fluoro-4-(8-isopropyl-2-((2-(2-methoxyethyl)-2-azaspiro[3.5]nonan-7-yl)amino)-7-oxo-7,8-dihydropyrido[2,3-d]pyrimidin-6-yl)phenyl)propane-1-sulfonamide] |
| 0.3 nM | CC(C)n1c(=O)c(-c2ccc(NS(=O)(=O)CCC(F)(F)F)c(F)c2)cc2cnc(NC3CCC4(CC3)CN(CCF)C4)nc21 [Example 235, 3,3,3-trifluoro-N-(2-fluoro-4-(2-((2-(2-fluoroethyl)-2-azaspiro-[3.5]nonan-7-yl)amino)-8-isopropyl-7-oxo-7,8-dihydropyrido[2,3-d]-pyrimidin-6-yl)phenyl)-propane-1-sulfonamide] |
| 0.5 nM | CC(C)n1c(=O)c(-c2ccc(NS(=O)(=O)Cc3ccccc3)nc2)nc2cnc(N[C@@H]3CNC[C@@H](F)C3)nc21 [Example 236, N-[5-[2-[[(3S,5S)-5-fluoro-3-piperidyl]amino]-8-isopropyl-7-oxo-pteridin-6-yl]-2-pyridyl]-1-phenyl-methanesulfonamide] |
| 0.3 nM | CC(C)n1c(=O)c(-c2ccc(NS(=O)(=O)Cc3ccccc3F)nc2)nc2cnc(N[C@@H]3CNC[C@@H](F)C3)nc21 [Example 237, 1-(2-Fluorophenyl)-N-[5-[2-[[(3S,5S)-5-fluoro-3-piperidyl]amino]-8-isopropyl-7-oxo-pteridin-6-yl]-2-pyridyl]methanesulfonamide] |
| 0.4 nM | CC(C)n1c(=O)c(-c2ccc(NS(=O)(=O)CCC(C)(F)F)nc2)nc2cnc(N[C@H]3CC[C@H](N(C)C)CC3)nc21 [Example 238, N-[5-[2-[[4-(Dimethylamino)cyclohexyl]amino]-8-isopropyl-7-oxo-pteridin-6-yl]-2-pyridyl]-3,3-difluoro-butane-1-sulfonamide] |
